Values after ≈ are worked out from the molar mass of the structure shown. Values joined by “and” are separate entries in the source; they are usually repeats but may differ in a detail not shown here. Identical values can stand only once. Like-named read-outs stand apart in the source and are kept apart here.
How the values were obtained:
[1] = test system: CPXV; assay: microbe, parasite or virus in culture; format: cell-based, cowpox virus (Brighton Red strain); conditions: Cowpox virus
[2] = in vivo; conditions: C57BL/6, mouse
[3] = in vitro; conditions: mouse, plasma
[4] = physchem; conditions: pH 7.4, aqueous buffer
[5] = rat, in vivo; cited from earlier work
[6] = dog, in vivo; cited from earlier work
[7] = test system: VACV; assay: microbe, parasite or virus in culture; format: cell-based, vaccinia virus (Western Reserve strain); conditions: for EC50: Orthopoxvirus vaccinia
[8] = test system: VACV; set-up: species or system BALB/c mice; conditions: mouse, in vivo
[9] = test system: VACV; format: in vivo, BALB/c mice; conditions: 21 days
[10] = test system: NS5B-mediated replication of hepatitis C virus RNA; conditions: cited from earlier work
[11] = test system: VACV; set-up: species or system BALB/c mice; conditions: mouse, in vivo; remark: listed apart in the source
[12] = test system: RPXV; assay: microbe, parasite or virus in culture; format: cell-based; conditions: Rabbitpox virus, RAW264.7
[13] = test system: MPXV; format: cell-based, Mpox virus (West African clade US2003, clade IIa)
[14] = in vitro

C[C@@]1(O)[C@H](O)[C@@H](CO)O[C@H]1n1cc(F)c2c(N)ncnc21 [UMM-766, 7-fluoro-7-deaza-2′-C-methyladenosine]
EC50 [1]: 2170 nM | EC50 ([1]; MRC5): 8090 nM | bioavailability [2]: 48.8% | clearance [2]: 154 mL/min/kg | half-life [2]: 2.9 h | fraction unbound [3]: 0.844 | solubility [4]: 3300 µg/mL (≈ 11.1 mM) | highest tolerable dose [5]: 10 mg/kg | highest tolerable dose [6]: 10 mg/kg | EC50 and EC90 in MRC5 cells relative to RAW cells [7]: 3- to 15 fold | EC50 [7]: < 1000 nM | animals that met euthanasia criteria or died [8]: two | maximum percentage weight change [8]: −30.5% and −29.3% and −24.4% | median survival [8]: 8 days | survival [9]: 66.7% and 80% and 100% | effect on NS5B-mediated replication of hepatitis C virus RNA [10]: decrease NS5B-mediated replication of hepatitis C virus RNA by chain termination | IHC labeling in nasal cavity/turbinates [11]: minimal or absent labeling | hemorrhage in the olfactory bulb [11]: completely absent | meningeal necrosis in the olfactory bulb [11]: absent in two 3-mg/kg animals and two 10-mg/kg animals | necrosis of the olfactory epithelium (nasal cavity, H&E) [11]: two animals having minimal necrosis and two with moderate necrosis | severity of IHC labeling in nasal cavity/turbinates [11]: markedly reduced | severity/degree of IHC labeling in the lung [11]: mostly mild | IHC labeling in nasal cavity/turbinates ([11]; 10 mg/kg): labeling was absent | EC50 [12]: < 1000 nM

O=C(NN1C(=O)[C@@H]2[C@@H]3C=C[C@@H]([C@H]4C[C@@H]34)[C@@H]2C1=O)c1ccc(C(F)(F)F)cc1 [ST-246]
SI [13]: >2189.8 | CC50 [14]: > 30000 nM | SI [7]: >750 and >666.7 | EC50 [7]: 1 to 10 nM

— paper PMC10986512 (Microbiology Spectrum, 2024)
